“Also recorded” adds a separate entry of the source.
Assays:
Assay type in all cases: in vivo, mouse
epidermal ODC protein = experiment: TPA-induced epidermal ODC protein expression (western blot)
Method: FIG. 4. Inhibitory effect of Lupeol on TPA-induced epidermal ODC, iNOS and COX-2 protein expression in CD-1 mice: At different times after treatment, the animals were sacrificed, epidermal protein lysate was prepared, and ODC and COX-2 protein expression were determined. Equal loading of protein was confirmed by stripping the immunoblot and reprobing it for β-actin. The immunoblots shown here are representative of three independent experiments with similar results. The values above each lane indicate relative density of the band normalized to β-actin.
(§1) The animals were shaved on the dorsal side of the skin, divided into four groups and treated topically on the shaved area with either 0.4 ml vehicle (acetone), or TPA (3.2 nmol/0.4 ml acetone/animal, v/v), or Lupeol (1 or 2 mg/0.2 ml acetone/animal, w/v) followed 30 min later with TPA (3.2 nmol/0.2 ml acetone/animal). Animals were sacrificed at different times point i.e. 6, 12, 24 and 48 h post TPA treatment. […]
(§2) Epidermis from the whole skin was separated as described earlier (Katiyar et al., 1999) and was homogenized in ice-cold lysis buffer [50 mM Tris-HCl, 150 mM NaCl, 1 mM EGTA, 1 mM EDTA, 20 mM NaF, 100 mM Na3VO4, 0.5% NP-40, 1% Triton X-100, 1 mM PMSF (pH 7.4)] with freshly added protease inhibitor cocktail, Protease Inhibitor Cocktail Set III (Calbiochem, La Jolla, Calif., USA). […] The protein content in the lysates was measured by DC BioRad assay (BioRad Laboratories, Hercules, Calif.) as per the manufacturer's protocol.
For western blot analysis, 40 μg of the protein was resolved over 8-12% polyacrylamide gels and transferred to a nitrocellulose membrane. […] This was followed by incubation with anti-mouse or anti-rabbit secondary antibody horse-radish peroxidase (Amersham Life Sciences, Inc., USA) for 1 h and then washed several times and detected by chemiluminescence ECL kit, (Amersham Life Sciences, Inc., USA) and autoradiography using XAR-5 film obtained from Eastman Kodak Co. (Rochester, N.Y., USA). […]

NFκB/p65 = experiment: TPA-induced NFκB/p65 activation and nuclear translocation (western blot); conditions: topical Lupeol prior to TPA
Method: FIG. 7. Inhibitory effect of Lupeol on TPA-induced NF-κB activation and its subsequent translocation to nucleus in CD-1 mice. (a) At different times after treatment, the animals were sacrificed, nuclear lysates were prepared, and protein expression was determined. The values above each lane indicate relative density of the band.
as §1
as §2, with “protocol. […]” for “protocol.”

CWR22Rv1 cells = experiment: CWR22Rv1 xenograft tumor growth in athymic nude mice; conditions: Lupeol 1 mg/animal i.p. three times a week, vs control mice
Method: FIG. 18 depicts effect of lupeol treatment on the growth of tumors from CWR22Rv1 cells implanted in nude mice. The growth was measured in terms of average volume of tumors as a function of time. Data is represented as mean±SD. * indicates p<0.05 (B) Number of mice remaining with tumor volumes<1000 mm^3 after treatment with corn oil alone or Lupeol for indicated weeks. * indicates p<0.01
To determine, whether lupeol could reduce the tumorigenicity of prostate cancer cells in animal model, androgen-dependent prostate cancer cells CW22Rv1, were implanted in a Athymic nude mouse xenograft model. Mice were given i.p. injection of Lupeol (1 mg/animal) three times a week. Tumor growth was measured weekly in terms of volume of tumors as function of time.

## C=C(C)[C@@H]1CC[C@]2(C)CC[C@]3(C)[C@H](CC[C@@H]4[C@@]5(C)CC[C@H](O)C(C)(C)[C@@H]5CC[C@]43C)[C@@H]12 [Lupeol, Lup-20(29)-en-3β-ol]
Epidermal ODC protein; Lupeol alone up to 2 mg/animal
  epidermal ODC protein expression after Lupeol alone: without any effect on enzyme level
Epidermal ODC protein; Lupeol-pretreated animals, 1 or 2 mg, all time points
  inhibition of TPA-caused induction of epidermal ODC protein expression (densitometry): 50-70%
NFκB/p65
  TPA-induced NFκB/p65 activation and nuclear translocation: inhibited
CWR22Rv1 cells
  tumor growth (tumor volume as function of time): significant reduction in tumor growth; also recorded: significantly Lower than control mice

Source: patent US8618082B2, “Lupeol anti-tumor agent and uses thereof” (Wisconsin Alumni Research Foundation, priority 2004, dated 2013)
